What all share (type): in vivo
Test [1] relates to Beet Armyworm (Spodoptera exigua). Nature of the test: Bioassay on Beet Armyworm (BAW), 128-well diet tray assay. The note with it: Beet Armyworm, Table ABC, read-out: BAW rating. Put shortly:
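Second-instar larvae (one to five per well) placed on artificial diet surface-treated with 50 μg/cm^2 test molecule in 90:10 acetone-water, dried, eight wells per molecule. Held at 25° C, 14:10 light-dark, five to seven days; percent mortality recorded per well and averaged across the eight wells.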

For test [2], the system named is Yellow Fever Mosquito (Aedes aegypti). The test is described as follows: Bioassay on Yellow Fever Mosquito (YFM) larvae, 96-well plate. The note with it: Table ABC. On the procedure: Example C: Bioassays on Yellow Fever Mosquito (Aedes Aegypti, AEDSAE) (“YFM”)
Certain molecules disclosed in this document were tested against YFM using procedures described in the following paragraph. In the reporting of the results, the “GPA & YFM Rating Table” was used (See Table Section).
Master plates containing 400 μg of a molecule dissolved in 100 μL of dimethyl sulfoxide (DMSO) (equivalent to a 4000 ppm solution) are used. A master plate of assembled molecules contains 15 μL per well. To this plate, 135 μL of a 90:10 water:acetone mixture is added to each well. A robot (Biomek® NXP Laboratory Automation Workstation) is programmed to dispense 15 μL aspirations from the master plate into an empty 96-well shallow plate (“daughter” plate). There are 6 reps (“daughter” plates) created per master. The created daughter plates are then immediately infested with YFM larvae.
The day before plates are to be treated, mosquito eggs are placed in Millipore water containing liver powder to begin hatching (4 g. into 400 mL). After the daughter plates are created using the robot, they are infested with 220 μL of the liver powder/larval mosquito mixture (about 1 day-old larvae). After plates are infested with mosquito larvae, a non-evaporative lid is used to cover the plate to reduce drying. Plates are held at room temperature for 3 days prior to grading. After 3 days, each well is observed and scored based on mortality. The results are indicated in the table entitled “Table ABC: Biological Results” (See Table Section).

The subject of test [3] is Cabbage Looper (Trichoplusia ni). The test is described as follows: Bioassay on Cabbage Looper (CL), 128-well diet tray assay. The note with it: Cabbage Looper, Table ABC, read-out: CL rating. Put shortly:
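Second-instar larvae, one to five per well, placed on artificial diet surface-treated with 50 μg/cm^2 compound in acetone-water, eight wells per compound. Held 5-7 days at 25° C, 14:10 light-dark; percent mortality per well averaged across wells.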

Each structure is given as a SMILES string.

The results in this text go back to patent US10251394B2, “Molecules having pesticidal utility, and intermediates, compositions, and processes, related thereto” (Dow AgroSciences LLC, priority 2016, dated 2019).

Turning to `C[C@@H](NC(=O)c1ccc(/C(F)=C/C(c2cc(Br)cc(Br)c2)C(F)(F)F)cc1C(F)(F)F)C(=O)NCC(F)(F)F` (stereo partly drawn) [F33, 4-((Z)-3-(3,5-Dibromophenyl)-1,4,4,4-tetrafluorobut-1-en-1-yl)-N—((R)-1-oxo-1-((2,2,2-trifluoroethyl)amino)propan-2-yl)-2-(trifluoromethyl)benzamide], the pest or weed control at 50 µg/cm2 in test [1] and in test [3] was 50 to 100% each time. Besides, in test [2], the YFM rating result is “A (80-100)”.
Turning to `O=C(NC1(C(=O)NCC(F)(F)F)CC1)c1ccc(/C(F)=C/C(c2cc(Br)cc(Br)c2)C(F)(F)F)cc1C(F)(F)F` (centres unmarked) [F34, (Z)-4-(3-(3,5-dibromophenyl)-1,4,4,4-tetrafluorobut-1-en-1-yl)-N-(1-((2,2,2-trifluoroethyl)carbamoyl)cyclopropyl)-2-(trifluoromethyl)benzamide], the pest or weed control at 50 µg/cm2 in test [1] and in test [3] was 50 to 100% throughout. In addition, the YFM rating entry in test [2] is reported as “A (80-100)”.
With `O=C(CNC(=O)c1ccc(/C(F)=C/C(c2cc(Br)cc(Br)c2)C(F)(F)F)cc1C(F)(F)F)NCC(F)(F)F` (centres unmarked) [F35, (Z)-4-(3-(3,5-Dibromophenyl)-1,4,4,4-tetrafluorobut-1-en-1-yl)-N-(2-oxo-2-((2,2,2-trifluoroethyl)amino)ethyl)-2-(trifluoromethyl)benzamide], the pest or weed control at 50 µg/cm2 in test [1] and in test [3] was 50 to 100% in each case. Besides, in test [2], the YFM rating result is “A (80-100)”.
Turning to `C[C@@H](NC(=O)c1ccc(/C(F)=C/C(c2cc(Cl)c(F)c(Cl)c2)C(F)(F)F)cc1C(F)(F)F)C(=O)NCC(F)(F)F` (stereo partly drawn) [F36, 4-((Z)-3-(3,5-Dichloro-4-fluorophenyl)-1,4,4,4-tetrafluorobut-1-en-1-yl)-N—((R)-1-oxo-1-((2,2,2-trifluoroethyl)amino)propan-2-yl)-2-(trifluoromethyl)benzamide], the pest or weed control at 50 µg/cm2 in test [1] and in test [3] was 50 to 100% throughout. Further, in test [2], the YFM rating result is “A (80-100)”.
`O=C(NC1(C(=O)NCC(F)(F)F)CC1)c1ccc(/C(F)=C/C(c2cc(Cl)c(F)c(Cl)c2)C(F)(F)F)cc1C(F)(F)F` (centres unmarked) [F37, (Z)-4-(3-(3,5-Dichloro-4-fluorophenyl)-1,4,4,4-tetrafluorobut-1-en-1-yl)-N-(1-((2,2,2-trifluoroethyl)carbamoyl)cyclopropyl)-2-(trifluoromethyl)benzamide]: the pest or weed control at 50 µg/cm2 in test [1] and in test [3] was 50 to 100% throughout. For the same molecule, in test [2], the YFM rating entry was “A (80-100)”.
Turning to `O=C(CNC(=O)c1ccc(/C(F)=C/C(c2cc(Cl)c(F)c(Cl)c2)C(F)(F)F)cc1C(F)(F)F)NCC(F)(F)F` (centres unmarked) [F38, (Z)-4-(3-(3,5-Dichloro-4-fluorophenyl)-1,4,4,4-tetrafluorobut-1-en-1-yl)-N-(2-oxo-2-((2,2,2-trifluoroethyl)amino)ethyl)-2-(trifluoromethyl)benzamide], the pest or weed control at 50 µg/cm2 in test [1] and in test [3] was 50 to 100% in each case. The YFM rating entry in test [2] was “A (80-100)”.
In the case of `O=C(NC1(C(=O)NCC(F)(F)F)CC1)c1ccc(/C(F)=C/C(c2cc(Cl)cc(Cl)c2)C(F)(F)F)cc1C(F)(F)F` (centres unmarked) [F39, (Z)-4-(3-(3,5-Dichlorophenyl)-1,4,4,4-tetrafluorobut-1-en-1-yl)-N-(1-((2,2,2-trifluoroethyl)carbamoyl)cyclopropyl)-2-(trifluoromethyl)benzamide], the pest or weed control at 50 µg/cm2 in test [1] and in test [3] was 50 to 100% each time. Also, the YFM rating entry in test [2] is listed as “A (80-100)”.
Consider `O=C(CNC(=O)c1ccc(/C(F)=C/C(c2cc(Cl)cc(Cl)c2)C(F)(F)F)cc1C(F)(F)F)NCC(F)(F)F` (centres unmarked) [F40, (Z)-4-(3-(3,5-Dichlorophenyl)-1,4,4,4-tetrafluorobut-1-en-1-yl)-N-(2-oxo-2-((2,2,2-trifluoroethyl)amino)ethyl)-2-(trifluoromethyl)benzamide], for which the pest or weed control at 50 µg/cm2 in test [1] and in test [3] was 50 to 100% in each case. The YFM rating entry in test [2] is “A (80-100)”.
Regarding `O=C(NC1(C(=O)NCC(F)(F)F)CC1)c1ccc(/C(F)=C/C(c2ccc(Cl)c(Cl)c2)C(F)(F)F)cc1C(F)(F)F` (centres unmarked) [F41, (Z)-4-(3-(3,4-Dichlorophenyl)-1,4,4,4-tetrafluorobut-1-en-1-yl)-N-(1-((2,2,2-trifluoroethyl)carbamoyl)cyclopropyl)-2-(trifluoromethyl)benzamide], the pest or weed control at 50 µg/cm2 in test [1] and in test [3] was 50 to 100% in each case. In test [2], the YFM rating entry was “A (80-100)”.
For the molecule `CN(CC(F)(F)F)C(=O)C1(NC(=O)c2ccc(/C(F)=C/C(c3cc(Cl)cc(Cl)c3)C(F)(F)F)cc2C(F)(F)F)CC1` (centres unmarked) [F133, (Z)-4-(3-(3,5-Dichlorophenyl)-1,4,4,4-tetrafluorobut-1-en-1-yl)-N-(1-(methyl(2,2,2-trifluoroethyl)carbamoyl)cyclopropyl)-2-(trifluoromethyl)benzamide], the YFM rating result in test [2] is listed as “B (More than 0-Less than 80)”.
In the case of `Cc1cc(C(/C=C(\F)c2ccc(C(=O)NC3(C(=O)N(C)CC(F)(F)F)CC3)c(C(F)(F)F)c2)C(F)(F)F)cc(C)c1Cl` (centres unmarked) [F134, (Z)-4-(3-(4-Chloro-3,5-dimethylphenyl)-1,4,4,4-tetrafluorobut-1-en-1-yl)-N-(1-(methyl(2,2,2-trifluoroethyl)carbamoyl)cyclopropyl)-2-(trifluoromethyl)benzamide], the YFM rating entry in test [2] was “B (More than 0-Less than 80)”.
As for `CN(CC(F)(F)F)C(=O)C1(NC(=O)c2ccc(/C(F)=C/C(c3ccc(Cl)c(Cl)c3)C(F)(F)F)cc2C(F)(F)F)CC1` (centres unmarked) [F135, (Z)-4-(3-(3,4-Dichlorophenyl)-1,4,4,4-tetrafluorobut-1-en-1-yl)-N-(1-(methyl(2,2,2-trifluoroethyl)carbamoyl)cyclopropyl)-2-(trifluoromethyl)benzamide], the YFM rating entry in test [2] was “B (More than 0-Less than 80)”.
The same measure, in the same setting: then `C[C@@H](NC(=O)c1ccc(/C(F)=C/C(c2cc(Cl)cc(Cl)c2)C(F)(F)F)cc1C(F)(F)F)C(=O)NCC(F)(F)F` (stereo partly drawn) [F144, 4-((Z)-3-(3,5-Dichlorophenyl)-1,4,4,4-tetrafluorobut-1-en-1-yl)-N—((R)-1-oxo-1-((2,2,2-trifluoroethyl)amino)propan-2-yl)-2-(trifluoromethyl)benzamide], with “A (80-100)”.
`C[C@@H](NC(=O)c1ccc(/C(F)=C/C(c2cc(Cl)c(Cl)c(Cl)c2)C(F)(F)F)cc1C(F)(F)F)C(=S)NCC(F)(F)F` (stereo partly drawn) [PF96, 4-((2)-1,4,4,4-Tetrafluoro-3-(3,4,5-trichlorophenyl)but-1-en-1-yl)-N—((R)-1-thioxo-1-((2,2,2-trifluoroethyl)amino)propan-2-yl)-2-(trifluoromethyl)benzamide]: the pest or weed control at 50 µg/cm2 in test [1] and in test [3] was 50 to 100% each time.
As to `O=C(NC1(C(=S)NCC(F)(F)F)CC1)c1ccc(/C(F)=C/C(c2cc(Cl)c(Cl)c(Cl)c2)C(F)(F)F)cc1C(F)(F)F` (centres unmarked) [PF98, (Z)-4-(1,4,4,4-Tetrafluoro-3-(3,4,5-trichlorophenyl)but-1-en-1-yl)-N-(1-((2,2,2-trifluoroethyl)carbamothioyl)cyclopropyl)-2-(trifluoromethyl)benzamide], the pest or weed control at 50 µg/cm2 in test [1] and in test [3] was 50 to 100% in each case.
